Data taken from ChEMBL document CHEMBL4342498, “Design and Discovery of an Orally Efficacious Spiroindolinone-Based Tankyrase Inhibitor for the Treatment of Colon Cancer” (J Med Chem, 2020).
≈ marks a conversion by molar mass, not a printed value.

Key:
[1] = Cmax in ICR mouse at 50 mg/kg, po; assay type: ADME, organism-based; design: dose 50 mg/kg, route oral; conditions: in vivo
[2] = Half life in ICR mouse at 50 mg/kg, ip; assay type: ADME, organism-based; conditions: in vivo
[3] = Half life in ICR mouse at 50 mg/kg, po; assay type: ADME, organism-based; conditions: in vivo
[4] = Efflux ratio of permeability across basolateral to apical side over apical to basolateral side in MDCK2 cells; assay type: ADME, cell-based, Canis lupus familiaris, MDCK-II; conditions: dog, mdck
[5] = AUC (infinity) in ICR mouse at 50 mg/kg, po; assay type: ADME, organism-based; design: dose 50 mg/kg, time infinity, route oral; conditions: in vivo
physchem = conditions: phosphate buffered saline, pH 7.4
[6] = Stability in human liver microsomes assessed as parent compound remaining at 1 uM measured after 30 mins in presence of NADPH by LC-MS/MS analysis; assay type: ADME, Microsome; conditions: read-out: Stability
[7] = Stability in mouse liver microsomes assessed as parent compound remaining at 1 uM measured after 60 mins in presence of NADPH by LC-MS/MS analysis; assay type: ADME, Microsome; conditions: read-out: Stability
[8] = Tmax in ICR mouse at 50 mg/kg, ip; assay type: ADME, organism-based; conditions: in vivo
[9] = Permeability of the compound measured after 4 hrs by PAMPA; assay type: ADME; conditions: read-out: permeability
Tankyrase 1/2 = target: T1, Tankyrase 1/2 (Homo sapiens, UniProt Q9H2K2+O95271); conditions: hek293
T1 sequence (Q9H2K2 whole entry): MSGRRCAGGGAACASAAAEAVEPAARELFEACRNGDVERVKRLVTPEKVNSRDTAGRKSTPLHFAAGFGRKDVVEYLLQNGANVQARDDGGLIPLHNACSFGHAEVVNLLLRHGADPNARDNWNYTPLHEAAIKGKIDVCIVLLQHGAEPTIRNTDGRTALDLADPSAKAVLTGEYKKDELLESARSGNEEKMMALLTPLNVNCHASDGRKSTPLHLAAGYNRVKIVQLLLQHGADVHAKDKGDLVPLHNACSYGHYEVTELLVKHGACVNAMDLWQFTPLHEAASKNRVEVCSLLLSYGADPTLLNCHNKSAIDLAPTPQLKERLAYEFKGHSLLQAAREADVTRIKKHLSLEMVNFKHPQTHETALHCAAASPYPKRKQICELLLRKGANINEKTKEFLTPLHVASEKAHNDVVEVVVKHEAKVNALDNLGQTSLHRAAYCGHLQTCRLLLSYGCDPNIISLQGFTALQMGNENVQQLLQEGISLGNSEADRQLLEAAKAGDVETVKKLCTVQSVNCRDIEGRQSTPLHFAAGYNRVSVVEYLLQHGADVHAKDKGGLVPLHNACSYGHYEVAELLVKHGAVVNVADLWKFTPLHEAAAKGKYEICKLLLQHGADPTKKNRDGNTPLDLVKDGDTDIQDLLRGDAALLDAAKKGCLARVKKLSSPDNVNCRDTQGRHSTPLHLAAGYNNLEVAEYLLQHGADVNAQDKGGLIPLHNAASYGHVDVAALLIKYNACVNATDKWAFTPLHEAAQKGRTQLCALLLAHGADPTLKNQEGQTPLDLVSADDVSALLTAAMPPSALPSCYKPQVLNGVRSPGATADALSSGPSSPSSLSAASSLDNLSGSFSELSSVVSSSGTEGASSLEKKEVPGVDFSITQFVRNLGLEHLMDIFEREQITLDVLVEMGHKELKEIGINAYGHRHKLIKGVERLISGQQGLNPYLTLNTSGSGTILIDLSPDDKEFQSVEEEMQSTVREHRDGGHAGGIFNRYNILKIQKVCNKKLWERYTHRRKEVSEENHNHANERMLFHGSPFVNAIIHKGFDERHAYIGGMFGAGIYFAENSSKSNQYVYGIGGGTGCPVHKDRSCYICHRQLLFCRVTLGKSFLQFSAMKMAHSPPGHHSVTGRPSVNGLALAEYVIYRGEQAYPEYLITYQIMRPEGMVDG
T1 sequence (O95271 whole entry): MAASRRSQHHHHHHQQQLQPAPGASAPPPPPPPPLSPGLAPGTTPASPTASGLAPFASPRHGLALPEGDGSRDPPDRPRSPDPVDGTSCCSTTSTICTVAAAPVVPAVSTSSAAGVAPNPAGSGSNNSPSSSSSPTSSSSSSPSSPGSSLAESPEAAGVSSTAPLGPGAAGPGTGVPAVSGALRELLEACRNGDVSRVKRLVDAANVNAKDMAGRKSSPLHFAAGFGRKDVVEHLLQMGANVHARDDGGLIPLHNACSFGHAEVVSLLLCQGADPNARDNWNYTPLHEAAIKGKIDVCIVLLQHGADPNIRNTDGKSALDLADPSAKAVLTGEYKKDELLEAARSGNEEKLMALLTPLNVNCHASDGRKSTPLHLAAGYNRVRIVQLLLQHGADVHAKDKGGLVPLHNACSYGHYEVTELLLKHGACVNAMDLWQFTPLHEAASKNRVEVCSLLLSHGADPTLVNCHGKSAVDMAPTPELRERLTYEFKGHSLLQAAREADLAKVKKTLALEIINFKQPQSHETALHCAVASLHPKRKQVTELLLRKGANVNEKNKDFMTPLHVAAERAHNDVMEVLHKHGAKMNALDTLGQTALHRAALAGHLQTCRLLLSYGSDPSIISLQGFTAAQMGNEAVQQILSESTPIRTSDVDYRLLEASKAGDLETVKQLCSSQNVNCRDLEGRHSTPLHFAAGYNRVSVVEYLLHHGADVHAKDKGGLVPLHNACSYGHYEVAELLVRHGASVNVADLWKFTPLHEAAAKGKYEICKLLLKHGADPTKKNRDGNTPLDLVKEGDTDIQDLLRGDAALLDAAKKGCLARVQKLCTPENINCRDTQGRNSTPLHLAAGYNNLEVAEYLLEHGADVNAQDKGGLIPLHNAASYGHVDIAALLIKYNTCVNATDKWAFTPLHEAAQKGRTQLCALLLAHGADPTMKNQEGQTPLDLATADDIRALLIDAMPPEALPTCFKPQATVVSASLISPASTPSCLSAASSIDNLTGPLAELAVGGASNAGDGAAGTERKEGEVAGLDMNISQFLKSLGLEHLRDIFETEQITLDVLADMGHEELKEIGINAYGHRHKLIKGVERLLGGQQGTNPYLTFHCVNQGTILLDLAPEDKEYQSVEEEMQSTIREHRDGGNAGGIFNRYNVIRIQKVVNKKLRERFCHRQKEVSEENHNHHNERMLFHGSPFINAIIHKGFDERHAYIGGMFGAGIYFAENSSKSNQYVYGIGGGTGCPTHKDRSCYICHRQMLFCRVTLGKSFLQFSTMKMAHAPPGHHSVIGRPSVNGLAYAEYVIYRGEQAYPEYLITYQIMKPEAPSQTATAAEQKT
Description: Inhibition of TNKS/TNKS2 (unknown origin) expressed in HEK293 cells assessed as reduction in Wnt-signaling measured after 24 hrs by TCF-luciferase reporter gene assay

[10] = Protein binding in human plasma assessed as unbound fraction at 1 uM measured after 24 hrs by LC-MS/MS analysis; assay type: ADME, cell-free
[11] = target: T2, Poly [ADP-ribose] polymerase tankyrase-2 (Homo sapiens, UniProt Q9H2K2); experiment: Inhibition of recombinant human N-terminal TEV cleavage site-fused/FLAG-poly his-tagged TNKS2 ARC5-SAM-PARP domain (613 to 1166 residues) expressed in Escherichia coli assessed as reduction in auto-PARylation preincubated for 10 mins followed by biotinylated-NAD+ addition and measured after 45 mins by ELISA
T2 sequence (Q9H2K2 whole entry): T1 sequence (Q9H2K2 whole entry)

| Compound | Cmax [1] | half-life [2] | half-life [3] | efflux ratio [4] | AUC(0-inf) [5] | solubility at 1 h, 200 µM (physchem) | remaining at 0.5 h, 1 µM [6] | remaining at 1 h, 1 µM [7] | Tmax [8] | Papp at 4 h [9] | IC50 (Tankyrase 1/2) | fraction unbound at 24 h, 1 µM [10] | IC50 [11] |
| --- | --- | --- | --- | --- | --- | --- | --- | --- | --- | --- | --- | --- | --- |
| C[C@@H]1CN(c2cc(F)c3c(c2)N(C)C(=O)C32CCN(c3nc4c(c(=O)[nH]3)CCCN4C)CC2)C[C@H](C)O1 | 121 µM | 1.9 h | 1.8 h | 0.9 | 594 µM·h | 34.1 µg/mL (≈ 66.8 µM) | 73% | 28.7 to 55.9% | 1 h | 12.4 ×10⁻⁶ cm/s | 0.3 nM | 0.003 | 39.2 nM |
| CN1CCN(c2cc(F)c3c(c2)N(C)C(=O)C32CCN(c3nc4c(c(=O)[nH]3)CCCN4C)CC2)CC1 | 21.2 µM | 2.5 h | 4 h | 3.1 | 77 µM·h | 94.5 µg/mL (≈ 191 µM) | 72.7% | 30.5 to 54.5% | 0.5 h | 12.8 ×10⁻⁶ cm/s | 0.9 nM | 0.004 | 12.3 nM |
